The supplement of paper PMC3974653
Counter-ions that a name gives are not always drawn.

system: MTT (mouse pheochromocytoma); experiment: IC50 of cell viability (ATP content); settings: (24 or 48 h)
How it was run: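 Library compounds in DMSO (23 nl by pintool, 8 concentrations, final 0.5 nM to 46 µM) were applied for 24 or 48 hrs to MTT mouse pheochromocytoma cells that had been cultured overnight at 37°C, 5% CO2 in white 1536-well plates. Cell viability was measured by CellTiter-Glo ATP luminescence, read after 15 minutes, with positive-control wells set at 100% and DMSO wells at 0%. A four-parameter logistic fit of the normalised signals yielded the IC50.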

Row | Compound | IC50 of cell viability
1 | Cc1ccc2c(c1)[C@@H]1CN(C)CC[C@H]1N2 [DICARBINUM] | > 46 µM
2 | C[C@H](CCC(=O)O)[C@H]1CC[C@@H]2[C@H]3[C@@H](C[C@@H](O)[C@]21C)[C@]1(C)CC[C@H](O)C[C@@H]1C[C@@H]3O [Cholic Acid] | > 46 µM
3 | CC(=O)N(CC(O)CN(C(C)=O)c1c(I)c(C(=O)NC[C@@H](O)CO)c(I)c(C(=O)NC[C@@H](O)CO)c1I)c1c(I)c(C(=O)NC[C@@H](O)CO)c(I)c(C(=O)NC[C@@H](O)CO)c1I [Iodixanol] | > 46 µM
4 | CC(=O)O[C@@H]1C[C@]2(C)[C@H](C[C@@H](O)[C@H]3[C@@]4(C)CC[C@@H](O)[C@@H](C)[C@@H]4CC[C@@]32C)/C1=C(\CCC=C(C)C)C(=O)[O-].[Na+] [Fusidic acid sodium salt] | > 46 µM
5 | CC(C)NCC(O)COc1ccc(COCCOC(C)C)cc1.CC(C)NCC(O)COc1ccc(COCCOC(C)C)cc1.O=C(O)/C=C/C(=O)O (stereo unspecified) [Bisoprolol hemifumarate salt] | > 46 µM
6 | CCOc1cc(C=O)ccc1O [Ethylvanillin] | > 46 µM
7 | CC(C)(O)C(Cl)(Cl)Cl [CHLOROBUTANOL] | > 46 µM
8 | C#C[C@]1(O)CC[C@H]2[C@@H]3CCc4cc(OC)ccc4[C@H]3CC[C@@]21C [MESTRANOL] | > 46 µM
9 | C[C@H]1CC[C@]2(OC1)O[C@@H]1C[C@@H]3[C@H]4CC[C@H]5C[C@@H](O)CC[C@]5(C)[C@@H]4CC(=O)[C@@]3(C)[C@H]1[C@@H]2C [Hecogenin] | > 46 µM
10 | CC(C)C(C)(C)C(C)(C)C(C)(C)S [tert-Dodecanethiol] | > 46 µM
11 | CNC(C)Cc1ccccc1OC (stereo unspecified) [Methoxyphenamine] | > 46 µM
12 | CCCCCOC(=O)Nc1nc(=O)n(C2O[C@H](C)[C@@H](O)[C@@H]2O)cc1F (stereo partly specified) [Capecitabine] | > 46 µM
13 | O=C([O-])c1ccccc1O [ZINC SALICYLATE] | > 46 µM
14 | CCCCNC(=N)NC(=N)N [BUFORMIN HYDROCHLORIDE] | > 46 µM
15 | CO[C@H]1/C=C/O[C@@]2(C)Oc3c(C)c(O)c4c(O)c(c(/C=N\N5CCN(C6CCCC6)CC5)c(O)c4c3C2=O)NC(=O)C(C)=C/C=C/[C@H](C)[C@H](O)[C@@H](C)[C@@H](O)[C@@H](C)[C@H](OC(C)=O)[C@@H]1C [RIFAPENTINE] | > 46 µM
16 | CO[C@H]1[C@@H](O[C@@H]2O[C@@H](C)[C@@H](O[C@H]3C[C@](C)(O)[C@H](OC(=O)CC(C)C)[C@H](C)O3)[C@@H](N(C)C)[C@H]2O)[C@H](CC=O)C[C@@H](C)[C@@H](O)/C=C\C=C/C[C@@H](C)OC(=O)C[C@H]1OC(C)=O [Josamycin] | > 46 µM
17 | Cc1ncc(CO)c(CO)c1O [Pyridoxine] | > 46 µM
18 | COc1ccc(Cc2cnc(N)nc2N)cc1OC [DIAVERIDINUM] | > 46 µM
19 | [Na+].C[C@]12CC[C@H]3[C@@H](C\C=C/4C[C@H](CC[C@]34C)O[S]([O-])(=O)=O)[C@@H]1CCC2=O [Dehydroisoandrosterone 3-sulfate sodium] | > 46 µM
20 | CCOC(=O)NNc1ccc(N(CC)CC(C)O)nn1 (stereo unspecified) [Cadralazine] | > 46 µM
21 | O=[N+]([O-])c1c(Cl)c(Cl)cc(Cl)c1Cl [2,3,5,6-Tetrachloronitrobenzene] | > 46 µM
22 | Cn1c(CCCC(=O)O)nc2cc(N(CCCl)CCCl)ccc21 [BENDAMUSTINUM] | > 46 µM
23 | CC(=O)[O][Al]([OH])[O]C(C)=O [Aluminum subacetate] | > 46 µM
24 | NCCNCCN [Diethylenetriamine] | > 46 µM
25 | O=C(NC1N=C(c2ccccc2F)c2cccc3c2N(CC3)C1=O)c1cc2ccccc2[nH]1 (stereo in doubt) | > 46 µM

Continued, values first:

Row | IC50 of cell viability | Compound
26 | > 46 µM | COc1ccc([C@@H]2Sc3ccccc3N(CCN(C)C)C(=O)[C@@H]2OC(C)=O)cc1 [DILTIAZEM]
27 | > 46 µM | OC[C@H]1O[C@H](C[C@@H]1O)N2\C=C(Br)/C(=O)NC2=O [Broxuridina]
28 | > 46 µM | CCc1ccc(C(=O)C(C)CN2CCCCC2)cc1 (stereo unspecified) [EPERISONE HYDROCHLORIDE]
29 | > 46 µM | Oc1ccccc1/C=N/Cc1ccccc1 [Norletimol]
30 | > 46 µM | CC1=C(CC(=O)O)c2cc(F)ccc2/C1=C\c1ccc([S+](C)[O-])cc1 (stereo unspecified) [Sulindac]
31 | > 46 µM | Nc1ccc(C(=O)[O-])c(O)c1 [Pasiniazid]
32 | > 46 µM | O=C(Nc1ncc([N+](=O)[O-])s1)c1cccs1 [Tenonitrozol]
33 | > 46 µM | O=[N+]([O-])c1c(Cl)cccc1-c1c[nH]cc1Cl [PYRROLNITRIN]
34 | > 46 µM | NC(=O)C1c2ccccc2CCc2ccccc21 [Cyheptamide]
35 | > 46 µM | Cc1oc(=O)oc1CN1CCN(c2cc3c(cc2F)c(=O)c(C(=O)O)c2n3C(C)S2)CC1 (stereo unspecified) [Prulifloxacin]
36 | > 46 µM | CN1CCC(OC(c2ccccc2)c2ccccc2)CC1 [Diphenylpyraline hydrochloride]
37 | > 46 µM | COc1ccc(CCNC[C@H](O)COc2cccc(C)c2)cc1OC [Bevantolol]
38 | > 46 µM | Cc1cccc(C)c1NC(=O)c1cc([S+](N)(=O)[O-])c(Cl)cc1O [Xipamide]
39 | > 46 µM | CC1CCC(C(C)C)C(OC(=O)c2ccccc2O)C1 (stereo unspecified) [MENTHYL SALICYLATE]
40 | > 46 µM | OC1(c2ccc(Cl)c(C(F)(F)F)c2)CCN(CCCC(c2ccc(F)cc2)c2ccc(F)cc2)CC1 [Penfluridol]
41 | > 46 µM | O=C1C(CC[S+]([O-])c2ccccc2)C(=O)N(c2ccccc2)N1c1ccccc1 (stereo unspecified) [Sulfinpyrazone]
42 | > 46 µM | O=C([O-])c1cc(/N=N/c2ccc(O)c(C(=O)[O-])c2)ccc1O [OLSALAZINE SODIUM]
43 | > 46 µM | O\C1=C(/C/C2=C(\O)C3=C(OC2=O)C=CC=C3)C(=O)OC4=C1C=CC=C4 [Dicumarol]
44 | > 46 µM | NC(=O)NC(=O)Cc1ccccc1 [PHENACEMIDE]
45 | > 46 µM | CC(NNC(=O)c1ccccc1)c1ccccc1 (stereo unspecified) [Benmoxin]
46 | > 46 µM | CCCCc1nc(Cl)c(CO)n1Cc1ccc(-c2ccccc2-c2nnn[nH]2)cc1 [LOSARTAN]
47 | > 46 µM | COCCc1ccc(OC[C@H](O)CNC(C)C)cc1.COCCc1ccc(OC[C@H](O)CNC(C)C)cc1.O=C(O)[C@@H](O)[C@@H](O)C(=O)O (racemic) [Metoprolol-(+,-) (+)-tartrate salt]
48 | > 46 µM | N[S+](=O)([O-])c1cc(C(=O)O)c(NCc2ccco2)cc1Cl [Furosemide]
49 | > 46 µM | CC(CCc1ccc(O)cc1)NCC(O)c1ccc(O)cc1 (stereo unspecified) [RACTOPAMINE HYDROCHLORIDE]
50 | > 46 µM | O=C1OC(c2ccc(O)c([S+](=O)([O-])O)c2)(c2ccc(O)c([S+](=O)([O-])O)c2)c2c(Br)c(Br)c(Br)c(Br)c21 (stereo unspecified) [SULFOBROMOPHTHALEIN SODIUM]
51 | > 46 µM | CCCN[C@@H](C)C(=O)Nc1ccccc1C [Prilocaine hydrochloride]
